In ChEMBL document CHEMBL5303304, “EUbOPEN Chemogenomics Library - IncuCyte” (2023):

Key:
Assay type in all cases: toxicity, cell-based
[1] = tested on: HEK-293T; assay: Incucyte cell viability with HEK293T; conditions: human, 10 µM, compound concentration 10 uM
[2] = tested on: Fibroblast; assay: Incucyte cell viability with human fibroblast; conditions: 10 µM, compound concentration 10 uM
[3] = tested on: U2OS; assay: Incucyte cell viability with U2OS; conditions: human, 10 µM, compound concentration 10 uM
Note: unitless GR value; below 1 slowed growth and below 0 cell loss.

| Structure (SMILES) | Growth Rate ([1]; 0 h, replicate number 1) | Growth Rate ([2]; 0 h, replicate number 2) | Growth Rate ([2]; 6 h, replicate number 1) | Growth Rate ([2]; 6 h, replicate number 2) | Growth Rate ([2]; 12 h, replicate number 2) | Growth Rate ([2]; 18 h, replicate number 1) | Growth Rate ([2]; 18 h, replicate number 2) | Growth Rate ([2]; 24 h, replicate number 1) | Growth Rate ([2]; 24 h, replicate number 2) | Growth Rate ([2]; 0 h, replicate number 1) | Growth Rate ([3]; 6 h, replicate number 1) | Growth Rate ([3]; 6 h, replicate number 2) | Growth Rate ([3]; 0 h, replicate number 1) | further results |
| --- | --- | --- | --- | --- | --- | --- | --- | --- | --- | --- | --- | --- | --- | --- |
| COc1cc(-c2cncc(-c3ccc(N4CCN(C(C)C)CC4)cc3)c2C)cc(F)c1C(N)=O | -0.67 | -0.84 | – | – | – | – | – | – | – | – | – | – | – | – |
| CNc1ncc2cc(-c3ccc(-c4ncccc4F)cc3Cl)c(=O)n(C[C@H]3OC[C@H](N)CO3)c2n1 | -0.97 | – | 0.02 | -0.26 | -0.06 | 0.78 | 0.35 | 0.8 | 0.66 | – | – | – | – | Growth Rate ([2]; 12 h, replicate number 1): 0.37 |
| N=C(N)Nc1cc(C2CCNCC2)cc(C(F)(F)F)c1.O=C(O)C(F)(F)F.O=C(O)C(F)(F)F | 0.85 | -1 | – | – | – | – | – | 0.99 | – | – | – | – | – | Growth Rate ([1]; 0 h, replicate number 2): -0.14; Growth Rate ([1]; 6 h, replicate number 1): 0.69; Growth Rate ([1]; 12 h, replicate number 1): 0.91; Growth Rate ([1]; 18 h, replicate number 1): 0.98; Growth Rate ([1]; 24 h, replicate number 1): 0.96 |
| COc1cc2nc([C@@H]3CCCS(=O)(=O)C3)n(C)c2cc1NC(=O)c1cccc(C(C)(F)F)n1 | -0.79 | -0.81 | – | – | – | – | – | – | – | – | – | – | – | Growth Rate ([1]; 0 h, replicate number 2): -0.88 |
| O=C(O)c1ccc(CN2C[C@@H]3C[C@H]2CN3Cc2ccc(Oc3ccc(-c4ncco4)cc3)cc2)cc1 [ACEBILUSTAT] | – | – | – | -0.8 | 0.38 | – | 0.62 | – | 0.87 | -0.98 | 0.74 | -0.01 | – | Growth Rate ([3]; 0 h, replicate number 2): 0.32; Growth Rate ([3]; 12 h, replicate number 2): 0.49; Growth Rate ([3]; 18 h, replicate number 2): 0.79; Growth Rate ([3]; 24 h, replicate number 2): 0.82 |
| CC(C)(C#N)c1cc(Cn2cncn2)cc(C(C)(C)C#N)c1 [ANASTROZOLE] | – | -1 | – | – | – | 0.84 | – | 0.63 | – | – | – | – | -0.51 | Growth Rate ([2]; 12 h, replicate number 1): -1 |
| C[C@H](CCC(=O)O)[C@H]1CC[C@H]2[C@@H]3CC[C@@H]4C[C@H](O)CC[C@]4(C)[C@H]3C[C@H](O)[C@]12C [DEOXYCHOLIC ACID] | – | – | 0.32 | 0.72 | 0.78 | 0.97 | 0.69 | – | 0.9 | 0.67 | 0.86 | 0.82 | 0.46 | Growth Rate ([3]; 0 h, replicate number 2): 0.84; Growth Rate ([3]; 12 h, replicate number 1): 0.76; Growth Rate ([3]; 12 h, replicate number 2): 0.96; Growth Rate ([3]; 18 h, replicate number 1): 0.88; Growth Rate ([3]; 24 h, replicate number 1): 0.86 |
| C[C@]12CC[C@H](O)CC1=CC[C@@H]1[C@@H]2CC[C@]2(C)C(n3cnc4ccccc43)=CC[C@@H]12 [GALETERONE] | – | 0.96 | 0.94 | -0.64 | – | 0.61 | – | 0.01 | – | -0.16 | – | – | -0.4 | – |
| c1ccc(Cn2c(N3CCNCC3)nc3ccccc32)cc1 [LERISETRON] | – | – | – | -0.44 | 0.34 | – | 0.56 | – | 0.68 | -0.1 | 0.7 | 0.64 | – | Growth Rate ([3]; 18 h, replicate number 2): 0.94; Growth Rate ([3]; 24 h, replicate number 2): 0.99 |
